Our source for the solubility in water values is patent US8097616B2, “Process for preparation of high-purity meloxicam and meloxicam potassium salt” (Egis Gyogyszergyar Nyilvanosan Mukodo Reszvenytarsasag, priority 2004, dated 2012).

The series is described as follows: solubility in water at the acidification pH. The class given is physicochemical. Particulars: acidified until pH 6.

As to `Cc1cnc(NC(=O)C2=C(O)c3ccccc3S(=O)(=O)N2C)s1` [meloxicam, 4-hydroxy-2-methyl-N-(5-methyl-2-thiazolyl)-2H-1,2-benzothiazine-3-carboxamide-1,1-dioxide], the solubility in water entry was “almost insoluble”.
